From US20240317714A1, “3-[(1H-PYRAZOL-R-YL)OXY]PYRAZIN-2-AMINE COMPOUNDS AS HPK1 INHIBITOR AND USE THEREOF” (BeiGene, Ltd., priority 2020, published 2024) come the findings set out here.

The structures appear in SMILES notation.

The target of assay [1] is HPK1 kinase (aal-346. Life Technologies) (Homo sapiens (Human), UniProt Q92918). Kind of assay: HPK Kinase Activity Assay at 1 mM ATP (TR-FRET). In kind it is biochemical. The note with it: HPK1 kinase 40 nM, 0.5 μM STK1 substrate, read-out: Enzymatic activity IC50.
Chain of HPK1 kinase (aal-346. Life Technologies) (Q92918 1-346): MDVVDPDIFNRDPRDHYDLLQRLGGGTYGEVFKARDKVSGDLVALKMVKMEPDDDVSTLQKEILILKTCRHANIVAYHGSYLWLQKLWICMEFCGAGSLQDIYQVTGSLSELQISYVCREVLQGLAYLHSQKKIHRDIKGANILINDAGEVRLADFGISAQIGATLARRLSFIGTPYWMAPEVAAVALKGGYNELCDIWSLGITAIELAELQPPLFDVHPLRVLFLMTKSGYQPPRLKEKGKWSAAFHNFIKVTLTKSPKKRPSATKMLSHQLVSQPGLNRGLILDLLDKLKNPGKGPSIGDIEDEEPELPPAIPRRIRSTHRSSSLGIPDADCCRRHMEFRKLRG
In assay [2] the test system is pSLP76(S376) level in Jurkat cell line. Kind of assay: Cellular pSLP76(S376) HTRF Assay. Format: cell-based. The note with it: Homo sapiens, Jurkat, Jurkat cells, 2 h compound treatment, stimulated with 0.05 μg/mL anti-human CD3 (OKT3) for 30 min.

Take `CNS(=O)(=O)c1cc(-c2cnc(N)c(Oc3cnn(C4CCN(C)CC4)c3)n2)cc(N2CCCC2)c1` [Example A23, 3-(5-amino-6-((1-(1-methylpiperidin-4-yl)-1H-pyrazol-4-yl)oxy)pyrazin-2-yl)-N-methyl-5-(pyrrolidin-1-yl)benzenesulfonamide]: the values for the IC50 in assay [1] and in assay [2] were 0.006 µM and 0.035 µM, respectively.

`C[C@@H]1COCCN1c1cc(-c2cnc(N)c(Oc3cnn(C4CCN(C)CC4)c3)n2)cc(C(C)(C)O)n1` [Example B3, (R)-2-(4-(5-amino-6-((1-(1-methylpiperidin-4-yl)-1H-pyrazol-4-yl)oxy)pyrazin-2-yl)-6-(3-methylmorpholino)pyridin-2-yl)propan-2-ol]: the IC50 in assay [1] is 0.011 µM; in assay [2], 0.229 µM.

As to `Cc1cc(-c2cnc(N)c(Oc3cnn(C4CCN(C)CC4)c3)n2)cc(C)c1C(=O)NCCN1CCCCC1` [Example A5, 4-(5-amino-6-(1-(1-methylpiperidin-4-yl)-1H-pyrazol-4-yloxy)pyrazin-2-yl)-2,6-dimethyl-N-(2-(piperidin-1-yl)ethyl)benzamide], the IC50 is 0.035 µM in assay [1] and 0.07 µM in assay [2].

With `Cc1cc(-c2cnc(N)c(Oc3cnn(C4CCN(C)CC4)c3)n2)cc([C@]2(O)CCOC2)c1` [Example A74B, (R)-3-(3-(5-amino-6-((1-(1-methylpiperidin-4-yl)-1H-pyrazol-4-yl)oxy)pyrazin-2-yl)-5-methylphenyl)tetrahydrofuran-3-ol], the concentration for half-maximal inhibition (IC50) in assay [1] was 0.01 µM; in assay [2], 0.041 µM.

Regarding `Cc1cc(-c2cnc(N)c(Oc3cnn(C4CCN(C)CC4)c3)n2)cc(C2(NS(=O)(=O)c3ccccc3)CC2)c1` [Example A20, N-(1-(3-(5-amino-6-((1-(1-methylpiperidin-4-yl)-1H-pyrazol-4-yl)oxy)pyrazin-2-yl)-5-methylphenyl)cyclopropyl)benzenesulfonamide], the IC50 in assay [1] turned out to be 0.07 µM; in assay [2], 0.097 µM.

For the compound `Cc1cc(-c2cnc(N)c(Oc3cnn(C4CCN(C)CC4)c3)n2)cc(C2(O)CCCC2)c1` [Example A65, 1-(3-(5-amino-6-((1-(1-methylpiperidin-4-yl)-1H-pyrazol-4-yl)oxy)pyrazin-2-yl)-5-methylphenyl)cyclopentan-1-ol], the concentration for half-maximal inhibition (IC50) in assay [1] was 0.018 µM; in assay [2], 0.084 µM.

For `CNS(=O)(=O)c1cc(C)cc(-c2cnc(N)c(Oc3cnn(C4CCN(CC5COC5)CC4)c3)n2)c1` [Example A28, 3-(5-amino-6-((1-(1-(oxetan-3-ylmethyl)piperidin-4-yl)-1H-pyrazol-4-yl)oxy)pyrazin-2-yl)-N, 5-dimethylbenzenesulfonamide], the results for the half-inhibitory concentration (IC50) in assay [1] and in assay [2] were 0.05 µM and 0.097 µM, respectively.

`Cc1cc(-c2cnc(N)c(Oc3cnn(C4CCN(C)CC4)c3)n2)cc(C2(O)CCOC2)c1` (stereo not shown) [Example A69, 3-(3-(5-amino-6-((1-(1-methylpiperidin-4-yl)-1H-pyrazol-4-yl)oxy)pyrazin-2-yl)-5-methylphenyl)tetrahydrofuran-3-ol]: the IC50 in assay [1] worked out at 0.057 µM; in assay [2], 0.084 µM.

As for `CNS(=O)(=O)c1cc(-c2cnc(N)c(Oc3cnn(C4CCN(C)CC4)c3)n2)cc(N2CCC[C@H]2C)c1` [Example A43, (R)-3-(5-amino-6-((1-(1-methylpiperidin-4-yl)-1H-pyrazol-4-yl)oxy)pyrazin-2-yl)-N-methyl-5-(2-methylpyrrolidin-1-yl)benzenesulfonamide], the IC50 came to 0.006 µM in assay [1] and 0.026 µM in assay [2].

As for `C[C@@H]1COCCN1c1cc(-c2cnc(N)c(Oc3cnn(C4CCN(C)CC4)c3)n2)cc(C2(O)COC2)c1` [Example A59, (R)-3-(3-(5-amino-6-((1-(1-methylpiperidin-4-yl)-1H-pyrazol-4-yl)oxy)pyrazin-2-yl)-5-(3-methylmorpholino)phenyl)oxetan-3-ol], the IC50 in assay [1] amounted to 0.0082 µM; in assay [2], 0.051 µM.

Regarding `CNC(=O)c1c(C)cc(-c2cnc(N)c(Oc3cnn(C4CCN(C)CC4)c3)n2)cc1C` [Example A3, 4-(5-amino-6-(1-(1-methylpiperidin-4-yl)-1H-pyrazol-4-yloxy)pyrazin-2-yl)-N,2,6-trimethylbenzamide], the figures for the half-inhibitory concentration (IC50) in assay [1] and in assay [2] were 0.11 µM and 0.15 µM, respectively.

Take `Cc1cc(-c2cnc(N)c(Oc3cnn(C4CCN(C)CC4)c3)n2)cc(C2(O)CCCOC2)c1` (stereo not shown) [Example A88, 3-(3-(5-amino-6-((1-(1-methylpiperidin-4-yl)-1H-pyrazol-4-yl)oxy)pyrazin-2-yl)-5-methylphenyl)tetrahydro-2H-pyran-3-ol]: the half-maximal inhibitory concentration (IC50) turned out to be 0.034 µM in assay [1] and 0.085 µM in assay [2].

For the compound `COCc1cc(-c2cnc(N)c(Oc3cnn(C4CCN(C)CC4)c3)n2)cc(C2(O)COC2)c1` [Example A82, 3-(3-(5-amino-6-((1-(1-methylpiperidin-4-yl)-1H-pyrazol-4-yl)oxy)pyrazin-2-yl)-5-(methoxymethyl)phenyl)oxetan-3-ol], the values for the IC50 in assay [1] and in assay [2] were 0.037 µM and 0.125 µM, respectively.

Turning to `CN1CCC(n2cc(Oc3nc(-c4cc(N5CCOCC5)cc(C5(O)COC5)c4)cnc3N)cn2)CC1` [Example A72, 3-(3-(5-amino-6-((1-(1-methylpiperidin-4-yl)-1H-pyrazol-4-yl)oxy)pyrazin-2-yl)-5-morpholinophenyl)oxetan-3-ol], the 50% inhibitory concentration (IC50) in assay [1] amounted to 0.0056 µM; in assay [2], 0.059 µM.

As for `Cc1cc(-c2cnc(N)c(Oc3cnn(C4CCN(C)CC4)c3)n2)cc(C2(NS(C)(=O)=O)CC2)c1` [Example A11, N-(1-(3-(5-amino-6-((1-(1-methylpiperidin-4-yl)-1H-pyrazol-4-yl)oxy)pyrazin-2-yl)-5-methylphenyl)cyclopropyl)methanesulfonamide], the concentration for half-maximal inhibition (IC50) in assay [1] is 0.009 µM; in assay [2], 0.054 µM.

Turning to `CC(=O)NCc1c(C)cc(-c2cnc(N)c(Oc3cnn(C4CCN(C)CC4)c3)n2)cc1C` [Example A45, N-(4-(5-amino-6-((1-(1-methylpiperidin-4-yl)-1H-pyrazol-4-yl)oxy)pyrazin-2-yl)-2,6-dimethylbenzyl)acetamide], the IC50 in assay [1] was determined as 0.051 µM; in assay [2] it was 0.119 µM.

`CNc1cc(-c2cnc(N)c(Oc3cnn(C4CCN(C)CC4)c3)n2)cc(S(=O)(=O)NC)c1` [Example A22, 3-(5-amino-6-((1-(1-methylpiperidin-4-yl)-1H-pyrazol-4-yl)oxy)pyrazin-2-yl)-N-methyl-5-(methylamino)benzenesulfonamide]: the values for the IC50 in assay [1] and in assay [2] were 0.014 µM and 0.038 µM, respectively.

In the case of `CN1CCC(n2cc(Oc3nc(-c4cc(C5CCOCC5)cc(C5(O)COC5)c4)cnc3N)cn2)CC1` [Example A79, 3-(3-(5-amino-6-((1-(1-methylpiperidin-4-yl)-1H-pyrazol-4-yl)oxy)pyrazin-2-yl)-5-(tetrahydro-2H-pyran-4-yl)phenyl)oxetan-3-ol], the concentration for half-maximal inhibition (IC50) in assay [1] was found to be 0.012 µM; in assay [2], 0.071 µM.

In the case of `Cc1cc(-c2cnc(N)c(Oc3cnn(C4CCN(C)CC4)c3)n2)cc(C)c1CNc1ccn(C)n1` [Example A56, 5-(3,5-dimethyl-4-(((1-methyl-1H-pyrazol-3-yl)amino)methyl)phenyl)-3-((1-(1-methylpiperidin-4-yl)-1H-pyrazol-4-yl)oxy)pyrazin-2-amine], the IC50 in assay [1] was 0.053 µM; in assay [2], 0.085 µM.

`Cc1cc(-c2cnc(N)c(Oc3cnn(C4CCN(C)CC4)c3)n2)cc(C2(O)COC2)c1` [Example A54, 3-(3-(5-amino-6-((1-(1-methylpiperidin-4-yl)-1H-pyrazol-4-yl)oxy)pyrazin-2-yl)-5-methylphenyl)oxetan-3-ol]: the figures for the IC50 in assay [1] and in assay [2] were 0.01 µM and 0.033 µM, respectively.

For the compound `Cc1cc(-c2cnc(N)c(Oc3cnn(C4CCN(C)CC4)c3)n2)cc([C@]2(O)CCOC2)c1N1CCOCC1` [Example A97B, (R)-3-(5-(5-amino-6-((1-(1-methylpiperidin-4-yl)-1H-pyrazol-4-yl)oxy)pyrazin-2-yl)-3-methyl-2-morpholinophenyl)tetrahydrofuran-3-ol], the IC50 in assay [1] was found to be 0.03 µM; in assay [2], 0.154 µM.

As for `C[C@@H]1COCCN1c1cc(-c2cnc(N)c(Oc3cnn(C4CCN(C)CC4)c3)n2)cc(C2(O)CCCOC2)c1` (stereo partly drawn) [Example A89, 3-(3-(5-amino-6-((1-(1-methylpiperidin-4-yl)-1H-pyrazol-4-yl)oxy)pyrazin-2-yl)-5-((R)-3-methylmorpholino)phenyl)tetrahydro-2H-pyran-3-ol], the results for the half-inhibitory concentration (IC50) in assay [1] and in assay [2] were 0.011 µM and 0.064 µM, respectively.

For the compound `CC1OCCC1(O)c1cc(-c2cnc(N)c(Oc3cnn(C4CCN(C)CC4)c3)n2)cc(N2CCOC[C@H]2C)c1` (stereo partly drawn) [Example A94, 3-(3-(5-amino-6-((1-(1-methylpiperidin-4-yl)-1H-pyrazol-4-yl)oxy)pyrazin-2-yl)-5-((R)-3-methylmorpholino)phenyl)-2-methyltetrahydrofuran-3-ol], the half-maximal inhibitory concentration (IC50) in assay [1] was found to be 0.015 µM; in assay [2], 0.119 µM.

Turning to `Cc1cc(-c2cnc(N)c(Oc3cnn(C4CCN(C)CC4)c3)n2)cc(C2(O)COC2)c1C1OCCO1` [Example A87, 3-(5-(5-amino-6-((1-(1-methylpiperidin-4-yl)-1H-pyrazol-4-yl)oxy)pyrazin-2-yl)-2-(1,3-dioxolan-2-yl)-3-methylphenyl)oxetan-3-ol], the IC50 in assay [1] is 0.056 µM; in assay [2], 0.089 µM.

Consider `Cc1cc(-c2cnc(N)c(Oc3cnn(C4CCN(C)CC4)c3)n2)cc(C)c1CNc1ncn(C)n1` [Example A68, 5-(3,5-dimethyl-4-(((1-methyl-1H-1,2,4-triazol-3-yl)amino)methyl)phenyl)-3-((1-(1-methylpiperidin-4-yl)-1H-pyrazol-4-yl)oxy)pyrazin-2-amine], for which the concentration for half-maximal inhibition (IC50) in assay [1] came to 0.051 µM; in assay [2] it was 0.157 µM.

As to `Cc1cc(-c2cnc(N)c(Oc3cnn(C4CCN(C)CC4)c3)n2)cc(C2(NS(=O)(=O)CC(F)(F)F)CC2)c1` [Example A25, N-(l-(3-(5-amino-6-((1-(1-methylpiperidin-4-yl)-H-pyrazol-4-yl)oxy)pyrazin-2-yl)-5-methylphenyl)cyclopropyl)-2,2,2-trifluoroethane-1-sulfonamide], the 50% inhibitory concentration (IC50) in assay [1] was 0.014 µM; in assay [2] it was 0.062 µM.
